Data taken from PubChem BioAssay AID330 (DTP/NCI, 2004).
Toxic doses and inconclusive results are not listed.

Tested on: P388 leukemia ip, CD2F1 mice, survival T/C
Assay: NCI In Vivo Anticancer Drug Screen. Data for tumor model P388 Leukemia (intraperitoneal) in CD2F1 (CDF1) mice
Details: endpoint: median survival time, higher = longer survival
Outline: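 Mice carrying the transplanted tumor received test compound or vehicle. Survival was recorded in each group, and the value is the treated-group measurement divided by that of the vehicle-treated control group.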

[1] = dose: 60.0 mg/kg/injection, schedule: Q01DX005 (ip), vehicle: saline with Tween-80
[2] = dose: 120.0 mg/kg/injection, schedule: Q01DX005 (ip), vehicle: saline with Tween-80
[3] = dose: 240.0 mg/kg/injection, schedule: Q01DX005 (ip), vehicle: saline with Tween-80

**Q.** Which results are given for `COC(=O)C1=C(N)C(C#N)=C(C)C(C)(O)C1` (stereo not given)?
**A.** T/C (dose: 50.0 mg/kg/injection, schedule: Q01DX009 (ip), vehicle: Klucel (hydroxypropylcellulose) (HPC)): 99 % of control; T/C (dose: 100.0 mg/kg/injection, schedule: Q01DX009 (ip), vehicle: Klucel (hydroxypropylcellulose) (HPC)): 97 % of control; T/C (dose: 200.0 mg/kg/injection, schedule: Q01DX009 (ip), vehicle: Klucel (hydroxypropylcellulose) (HPC)): 108 % of control

**Q.** For `O=C(Nc1ccc(C(=O)O)cc1)Nc1nccs1`, which T/C (dose: 12.5 mg/kg/injection, schedule: Q01DX009 (ip), vehicle: distilled water + Tween-80) is on record?
**A.** Its T/C is 89 % of control.

**Q.** And the T/C (dose: 25.0 mg/kg/injection, schedule: Q01DX009 (ip), vehicle: distilled water + Tween-80)?
**A.** Its T/C is 118 % of control.

**Q.** What about the T/C (dose: 50.0 mg/kg/injection, schedule: Q01DX009 (ip), vehicle: distilled water + Tween-80) of the same molecule?
**A.** The T/C was 122 % of control.

**Q.** What about the T/C (dose: 100.0 mg/kg/injection, schedule: Q01DX009 (ip), vehicle: distilled water + Tween-80) of the same molecule?
**A.** Its T/C is 150 % of control.

**Q.** And the T/C (dose: 200.0 mg/kg/injection, schedule: Q01DX009 (ip), vehicle: distilled water + Tween-80)?
**A.** Its T/C is 163 % of control.

**Q.** Which results are given for `CC(=O)NC(C(=O)N1CCCC1)=C(C)C`?
**A.** T/C (dose: 100.0 mg/kg/injection, schedule: Q04DX002 (ip), vehicle: saline): 100 % of control; T/C (dose: 200.0 mg/kg/injection, schedule: Q04DX002 (ip), vehicle: saline): 98 % of control; T/C (dose: 400.0 mg/kg/injection, schedule: Q04DX002 (ip), vehicle: saline): 107 % of control

**Q.** How did the T/C [1] turn out when `COC(=O)C1(C2CCCCCCC2=O)NC(=S)NC(=O)C1C#N` (stereo not given) was run?
**A.** The T/C was 92 % of control.

**Q.** And the T/C [2]?
**A.** Its T/C is 99 % of control.

**Q.** What about the T/C [3] of the same molecule?
**A.** The T/C was 99 % of control.

**Q.** Which T/C (dose: 60.0 mg/kg/injection, schedule: Q01DX005 (ip), vehicle: saline) does the source give for `N#CCCC12CCC(=O)N1Cc1ccccc1C2=O` (stereo not given) here?
**A.** Its T/C is 105 % of control.

**Q.** And the T/C (dose: 120.0 mg/kg/injection, schedule: Q01DX005 (ip), vehicle: saline)?
**A.** The T/C was 123 % of control.

**Q.** And the T/C (dose: 240.0 mg/kg/injection, schedule: Q01DX005 (ip), vehicle: saline)?
**A.** The T/C was 123 % of control.

**Q.** How did the T/C (dose: 0.31 mg/kg/injection, schedule: Q01DX009 (ip), vehicle: saline with Tween-80) turn out when `NNC1=NCCS1` was run?
**A.** The T/C was 101 % of control.

**Q.** And the T/C (dose: 0.62 mg/kg/injection, schedule: Q01DX009 (ip), vehicle: saline with Tween-80)?
**A.** Its T/C is 98 % of control.

**Q.** What about the T/C (dose: 1.25 mg/kg/injection, schedule: Q01DX009 (ip), vehicle: saline with Tween-80) of the same molecule?
**A.** The T/C was 104 % of control.

**Q.** For `CC1=CC(=O)C=CC1(C)C(Cl)(Cl)Cl` (stereo not given), which T/C (dose: 50.0 mg/kg/injection, schedule: Q01DX009 (ip), vehicle: saline with Tween-80) is on record?
**A.** The T/C was 110 % of control.

**Q.** What about the T/C (dose: 100.0 mg/kg/injection, schedule: Q01DX009 (ip), vehicle: saline with Tween-80) of the same molecule?
**A.** The T/C was 110 % of control.

**Q.** What about the T/C (dose: 200.0 mg/kg/injection, schedule: Q01DX009 (ip), vehicle: saline with Tween-80) of the same molecule?
**A.** Its T/C is 105 % of control.

**Q.** `Cc1c(C)c2c(c3c1OC(C)(C)CC3)CCC(C)(C)O2` was tested. Which T/C (dose: 50.0 mg/kg/injection, schedule: Q01DX009 (ip), vehicle: suspension in saline) did it give?
**A.** The T/C was 88 % of control.

**Q.** And the T/C (dose: 100.0 mg/kg/injection, schedule: Q01DX009 (ip), vehicle: suspension in saline)?
**A.** Its T/C is 101 % of control.

**Q.** And the T/C (dose: 200.0 mg/kg/injection, schedule: Q01DX009 (ip), vehicle: suspension in saline)?
**A.** Its T/C is 100 % of control.

**Q.** With `Fc1cccc(F)n1` as the molecule, how does the T/C (dose: 25.0 mg/kg/injection, schedule: Q04DX003 (ip), vehicle: water) read?
**A.** The T/C was 91 % of control.

**Q.** What about the T/C (dose: 50.0 mg/kg/injection, schedule: Q04DX003 (ip), vehicle: water) of the same molecule?
**A.** Its T/C is 103 % of control.

**Q.** And the T/C (dose: 100.0 mg/kg/injection, schedule: Q04DX003 (ip), vehicle: water)?
**A.** Its T/C is 100 % of control.

**Q.** What about the T/C (dose: 200.0 mg/kg/injection, schedule: Q04DX003 (ip), vehicle: water) of the same molecule?
**A.** The T/C was 100 % of control.

**Q.** And the T/C (dose: 400.0 mg/kg/injection, schedule: Q04DX003 (ip), vehicle: water)?
**A.** The T/C was 104 % of control.

**Q.** Which T/C [1] does the source give for `Cn1c(=O)cc2n(C)c3ccccc3n2c1=O` here?
**A.** The T/C was 96 % of control.

**Q.** And the T/C [2]?
**A.** Its T/C is 100 % of control.

**Q.** And the T/C [3]?
**A.** Its T/C is 97 % of control.

**Q.** How did the T/C (dose: 25.0 mg/kg/injection, schedule: Q01DX005 (ip), vehicle: Klucel (hydroxypropylcellulose) (HPC)) turn out when `N#CC(C(N)=O)C1(C(C#N)C(N)=O)C(=O)Nc2ccccc21` (stereo not given) was run?
**A.** Its T/C is 103 % of control.

**Q.** And the T/C (dose: 50.0 mg/kg/injection, schedule: Q01DX005 (ip), vehicle: Klucel (hydroxypropylcellulose) (HPC))?
**A.** The T/C was 100 % of control.

**Q.** And the T/C (dose: 100.0 mg/kg/injection, schedule: Q01DX005 (ip), vehicle: Klucel (hydroxypropylcellulose) (HPC))?
**A.** Its T/C is 98 % of control.

**Q.** What about the T/C (dose: 200.0 mg/kg/injection, schedule: Q01DX005 (ip), vehicle: Klucel (hydroxypropylcellulose) (HPC)) of the same molecule?
**A.** Its T/C is 100 % of control.

**Q.** What does the source list for `C/C(=N\N=Nc1ccc(N(C)C)cc1)c1ccccc1`?
**A.** T/C (dose: 60.0 mg/kg/injection, schedule: Q01DX005 (ip), vehicle: Klucel + Tween-80): 100 % of control; T/C (dose: 120.0 mg/kg/injection, schedule: Q01DX005 (ip), vehicle: Klucel + Tween-80): 99 % of control
